One data set relates to Candida albicans. Put plainly: microbe, parasite or virus in culture. As for the experimental part:
(§1) The susceptibility test of microorganisms was performed to evaluate the inhibitory activity of the IAPs. Protocols M7-A10[50], M27-A3[51] and M38-A2[52] from Clinical & Laboratory Standards Institute (CLSI) were used for bacteria, yeasts and filamentous fungi tests, respectively. Briefly, different concentration of IAPs (256-0.5 µM) were tested against 16 microorganisms, in a final volume of 100 µL. Media conditions, final cell concentration and incubation conditions are presented in Supplementary Material 07, Table S5. Three biological repetitions, with 2 technical replicates each, were performed for each test, on polystyrene flat-bottom 96 wells microplates. The minimum inhibitory concentration (MIC) was defined as the concentration that no cells/hyphae were detected when visualized by optical microscopy.
(§2) Supplementary Material 07, Table S5
(§3) Table S5. Microorganisms and growth conditions.

In the next data set the test system is Cryptococcus neoformans. Put plainly: microbe, parasite or virus in culture. As for the experimental part: as §1, §2, §3
The next data set deals with Fusarium oxysporum. Put plainly: microbe, parasite or virus in culture. The following applies: Fusarium oxysporum, 48 h, pH 7, read-out: Minimum inhibitory concentration, Fusarium oxysporum. On the procedure:
as §1, §2, §3

A further data set concerns Trichoderma asperellum. Description: microbe, parasite or virus in culture. The following applies: Trichoderma asperellum, 48 h, pH 7, read-out: Minimum inhibitory concentration, Trichoderma asperellum. As for the experimental part: as §1, §2, §3
The test system of the next data set is Ramularia areola. Description: microbe, parasite or virus in culture. Conditions: Ramulariopsis gossypii, 120 h, pH 7, read-out: Minimum inhibitory concentration, Ramularia areola. As for the experimental part:
as §1, §2, §3

Data set [1] has as its system Staphylococcus aureus. Put plainly: Microbicidal activity (minimal killing concentration), plating on agar. Conditions: 10 µL of MIC and raising concentrations up to 256 µM plated on Mueller-Hinton agar; 37 °C, 24 h; no growth; mean ± SD, 3 biological replicates. In kind it is cell-based, Staphylococcus aureus ATCC 25923. On the procedure: (§4) The microbicidal activity of the IAPS was also evaluated. […] YPD agar and Mueller-Hinton agar were used for fungi/yeasts and bacteria, respectively. Meanwhile, susceptibility microplates were incubated again to evaluate if there would be any growing after a longer period. For both approaches, the minimal killing concentration (MKC) was defined as the concentration that no growth was observed after incubation. Three biological replicates were performed for each test.
as §2, §3
(§5) Microorganisms Incubation Incubation Starting cell Growth Medium
(§6) Temperature (°C) Time (h) concentration
(§7) Erwinia carotovora 28 24 5.0 x 10 5 Mueller -Hinton
(§8) Xanthomonas campestris pv. citri 28 24 5.0 x 10 5 Mueller -Hinton
(§9) Pseudomonas syringae pv. tabaci 28 24 5.0 x 10 5 Mueller -Hinton

The test system of data set [2] is Pseudomonas syringae pv. tabaci. The data set is described as above. Conditions: 10 µL of MIC and raising concentrations up to 256 µM plated on Mueller-Hinton agar; 28 °C, 24 h; no growth; mean ± SD, 3 biological replicates. In kind it is cell-based. On the procedure: as §4, §2, §3, §5, §6, §7, §8, §9
Data set [3] relates to Erwinia carotovora. The data set is described as above. In kind it is cell-based. The following applies: 10 µL of MIC and raising concentrations up to 256 µM plated on Mueller-Hinton agar; 28 °C, 24 h; no growth; mean ± SD, 3 biological replicates. On the procedure:
as §4, §2, §3, §5, §6, §7, §8, §9

For data set [4], the system named is Pseudomonas syringae pv. tabaci. Description: microbe, parasite or virus in culture. Conditions: Mueller-Hinton; 28 °C, 24 h; start 5.0 x 10^5 cells; 256-0.5 µM; mean ± SD of 3 biological repetitions (SD 0 not displayed); N/A = no antimicrobial activity observed. On the procedure:
as §1, §2, §3

Data set [5] has as its system Xanthomonas campestris. Description: microbe, parasite or virus in culture. Conditions: pv. citri; Mueller-Hinton; 28 °C, 24 h; start 5.0 x 10^5 cells; 256-0.5 µM; mean ± SD of 3 biological repetitions (SD 0 not displayed); N/A = no antimicrobial activity observed. As for the experimental part:
as §1, §2, §3

Data set [6] has as its system Escherichia coli. Put plainly: microbe, parasite or virus in culture. The following applies: ATCC 25922; Mueller-Hinton; 37 °C, 24 h; start 5.0 x 10^5 cells; 256-0.5 µM; mean ± SD of 3 biological repetitions (SD 0 not displayed); N/A = no antimicrobial activity observed. As for the experimental part: as §1, §2, §3
The subject of data set [7] is Staphylococcus aureus. Put plainly: microbe, parasite or virus in culture. Conditions: ATCC 25923; Mueller-Hinton; 37 °C, 24 h; start 5.0 x 10^5 cells; 256-0.5 µM; mean ± SD of 3 biological repetitions (SD 0 not displayed); N/A = no antimicrobial activity observed. As for the experimental part:
as §1, §2, §3

For data set [8], the system named is Bacillus subtilis. Description: microbe, parasite or virus in culture. The following applies: ATCC 23857; Mueller-Hinton; 37 °C, 24 h; start 5.0 x 10^5 cells; 256-0.5 µM; mean ± SD of 3 biological repetitions (SD 0 not displayed); N/A = no antimicrobial activity observed. As for the experimental part: as §1, §2, §3
Data set [9] relates to Erwinia carotovora. Description: microbe, parasite or virus in culture. The following applies: Mueller-Hinton; 28 °C, 24 h; start 5.0 x 10^5 cells; 256-0.5 µM; mean ± SD of 3 biological repetitions (SD 0 not displayed); N/A = no antimicrobial activity observed. As for the experimental part:
as §1, §2, §3

Data set [10] has as its system Escherichia coli. Put plainly: Microbicidal activity (minimal killing concentration), plating on agar. In kind it is cell-based, Escherichia coli ATCC 25922. Conditions: 10 µL of MIC and raising concentrations up to 256 µM plated on Mueller-Hinton agar; 37 °C, 24 h; no growth; mean ± SD, 3 biological replicates. As for the experimental part:
as §4, §2, §3, §5

Data set [11] has as its system Bacillus subtilis. Described as above. Conditions: 10 µL of MIC and raising concentrations up to 256 µM plated on Mueller-Hinton agar; 37 °C, 24 h; no growth; mean ± SD, 3 biological replicates. In kind it is cell-based, Bacillus subtilis ATCC 23857. On the procedure:
as §4, §2, §3, §5

Data set [12] relates to Xanthomonas campestris. The description is as above. Format: cell-based, Xanthomonas campestris pv. citri. The following applies: 10 µL of MIC and raising concentrations up to 256 µM plated on Mueller-Hinton agar; 28 °C, 24 h; no growth; mean ± SD, 3 biological replicates. As for the experimental part:
as §4, §2, §3, §5, §6, §7, §8, §9

The next data set deals with human red blood cells. Put plainly: Cytotoxicity: hemolysis of human red blood cells. Format: cell-based. As for the experimental part:
The cytotoxicity of the selected IAPS was performed using human red blood cells in strict accordance with relevant guidelines and regulations (Ethical committee – UnB # 1.939.989). Different concentrations of IAPs (128 µM–0.5 µM) were incubated with a final concentration of 2.5 × 10^5 red blood cells.mL^−1. Briefly, 100 µL of red blood cells was incubated with 100 µL of different concentrations of each IAP, prepared in PBS, for 30 minutes at 37 °C, with constant shaking at 120 rpm. PBS and Triton X-100 0.1% (v/v) were used as negative and positive controls, respectively. After incubation, the solution was centrifuged at 900 × g for five minutes followed by transferring 50 µL of the supernatant to flat-bottom polystyrene 96-well micro plates containing 50 µL of PBS. Microplate reading was performed at a BioTek Multireader, using a wavelength of 540 nm. All tests were performed in 3 biological replicates, composed of 3 biological repetitions each. The obtained data was subtracted by the negative control and relative to the positive control, defined as 100% lysis.

The next data set has as its system Bacillus cereus. Description: microbe, parasite or virus in culture. Conditions: ATCC 14579; Mueller-Hinton; 37 °C, 24 h; start 5.0 x 10^5 cells; 256-0.5 µM; mean ± SD of 3 biological repetitions (SD 0 not displayed); N/A = no antimicrobial activity observed. On the procedure: as §1, §2, §3
A further data set relates to Pseudomonas aeruginosa. Description: microbe, parasite or virus in culture. The following applies: ATCC 27853; Mueller-Hinton; 37 °C, 24 h; start 5.0 x 10^5 cells; 256-0.5 µM; mean ± SD of 3 biological repetitions (SD 0 not displayed); N/A = no antimicrobial activity observed. On the procedure:
as §1, §2, §3

We go through three compounds from paper PMC5643462, “Encrypted Antimicrobial Peptides from Plant Proteins” (Scientific Reports, 2017).

≈ marks a conversion by molar mass, not a printed value. No end group written: not given here.

As to `C[C@@H]1[C@H](O)[C@@H](C)/C=C/C=C/C=C/C=C/C=C/C=C/C=C/[C@H](O[C@@H]2O[C@H](C)[C@@H](O)[C@H](N)[C@@H]2O)C[C@@H]2O[C@](O)(C[C@@H](O)C[C@@H](O)[C@H](O)CC[C@@H](O)C[C@@H](O)CC(=O)O[C@H]1C)C[C@H](O)[C@H]2C(=O)O` [Amphotericin B], the MIC worked out at 0.27 µM (≈ 0.25 µg/mL) in the data set on Candida albicans (Candida albicans, ATCC90028, 48 h, pH 7, read-out: Minimum inhibitory concentration, Candida albicans); 0.13 µM (≈ 0.12 µg/mL) in the data set on Cryptococcus neoformans (Cryptococcus neoformans, ATCC28957, 72 h, pH 7, read-out: Minimum inhibitory concentration, Cryptococcus neoformans); 0.54 µM (≈ 0.499 µg/mL) in the data set with Fusarium oxysporum; 2.16 µM (≈ 2 µg/mL) with Trichoderma asperellum; 0.54 µM (≈ 0.499 µg/mL) in the data set with Ramularia areola.

As to `CC1(C)S[C@@H]2[C@H](NC(=O)[C@H](N)c3ccccc3)C(=O)N2[C@H]1C(=O)O` [Ampicilin], in the data set on Staphylococcus aureus [1], the “Minimum microbicidal concentration, Staphylococcus aureus” value turned out to be 10.77 ± 0.0 µM. Moreover, the “Minimum microbicidal concentration, Pseudomonas syringae pv. tabaci” value in data set [2] was 10.77 ± 0.0 µM. Also, in the data set on Erwinia carotovora [3], the “Minimum microbicidal concentration, Erwinia carotovora” value was 2.70 ± 0.0 µM. Further, in data set [4], the “Minimum inhibitory concentration, Pseudomonas syringae pv. tabaci” value turned out to be 2.69 µM (≈ 0.94 µg/mL). Moreover, the “Minimum inhibitory concentration, Xanthomonas campestris” value in the data set with Xanthomonas campestris [5] was 1.35 µM (≈ 0.472 µg/mL). In the data set with Escherichia coli [6], the “Minimum inhibitory concentration, Escherichia coli” value was 10.77 µM (≈ 3.76 µg/mL). Further, the “Minimum inhibitory concentration, Staphylococcus aureus” value in the data set with Staphylococcus aureus [7] was 5.38 µM (≈ 1.88 µg/mL). The “Minimum inhibitory concentration, Bacillus subtilis” value with Bacillus subtilis [8] was found to be 0.08 µM (≈ 0.028 µg/mL). The “Minimum inhibitory concentration, Erwinia carotovora” value in the data set with Erwinia carotovora [9] is listed as 1.35 µM (≈ 0.472 µg/mL). Further, the “Minimum microbicidal concentration, Escherichia coli” value in the data set with Escherichia coli [10] amounted to 10.77 ± 0.0 µM. Also, in the data set with Bacillus subtilis [11], the “Minimum microbicidal concentration, Bacillus subtilis” value amounted to 0.08 ± 0.0 µM. Also, in the data set on Xanthomonas campestris [12], the “Minimum microbicidal concentration, Xanthomonas campestris” value is on record as 5.38 ± 0.0 µM.

Turning to GSLHGFMYRYLKNMVLNLF-NH2 [Cs01], in the data set with human red blood cells, the “Hemolytic activity (% ± SD) at 1 µM” value came out at 0.10 ± 0.04%, the “Hemolytic activity (% ± SD) at 2 µM” value was determined as 0.05 ± 0.03%, the “Hemolytic activity (% ± SD) at 4 µM” value is 0.01 ± 0.00% and the “Hemolytic activity (% ± SD) at 8 µM” value is 0.09 ± 0.01%. In addition, in the data set on human red blood cells, the “Hemolytic activity (% ± SD) at 16 µM” value was 0.27 ± 0.09%, the “Hemolytic activity (% ± SD) at 32 µM” value was determined as 0.31 ± 0.15%, the “Hemolytic activity (% ± SD) at 64 µM” value is 2.18 ± 1.62% and the “Hemolytic activity (% ± SD) at 128 µM” value turned out to be 8.01 ± 2.16%. Besides, the “Hemolytic activity of human red blood cells (%) SC50” value in the data set on human red blood cells was above 128 µM. Also, the “Minimum inhibitory concentration, Candida albicans” value in the data set with Candida albicans (ATCC 90028, RPMI 1640 pH 7.0, 37 °C, 48 h, start 2.5 x 10^3 cells, 256-0.5 µM, mean ± SD of 3 biological repetitions (SD 0 not displayed), no cells seen by optical microscopy, N/A = no antimicrobial activity observed) came to 2.67 ± 1.15 µM. In addition, the “Minimum inhibitory concentration, Escherichia coli” value with Escherichia coli [6] is recorded as 32.0 µM. For the same compound, the “Minimum inhibitory concentration, Bacillus cereus” value in the data set with Bacillus cereus came out at 64.0 µM. Besides, in the data set on Cryptococcus neoformans (ATCC 28957, RPMI 1640 pH 7.0, 37 °C, 72 h, start 2.5 x 10^3 cells, 256-0.5 µM, mean ± SD of 3 biological repetitions (SD 0 not displayed), N/A = no antimicrobial activity observed), the “Minimum inhibitory concentration, Cryptococcus neoformans” value is given as 8.0 µM. In addition, the “Minimum inhibitory concentration, Staphylococcus aureus” value in the data set on Staphylococcus aureus [7] came to 4.0 µM. Further, in the data set with Bacillus subtilis [8], the “Minimum inhibitory concentration, Bacillus subtilis” value was found to be 8.0 µM. Further, the “Minimum inhibitory concentration, Pseudomonas aeruginosa” value in the data set with Pseudomonas aeruginosa was 32.0 µM.
